Key:
Assay in all cases: Test B preemergence/postemergence greenhouse plant response rating 0 to 10
Settings in all cases: 0 to 10 scale
chickweed = type: in vivo, Stellaria media
From the text: (§1) Seeds of barley (Hordeum vulgare), barnyardgrass (Echinochloa crus-galli), bedstraw (Galium aparine), blackgrass (Alopecurus myosuroides), […] (Bromus secalinus), chickweed (Stellaria media), cocklebur (Xanthium pensylvanicum), corn (Zea mays), cotton (Gossypium hirsutum), crabgrass (Digitaria spp.), giant foxtail (Setaria faberii), lambsquarters (Chenopodium album), morningglory (Ipomoea hederacea), rape (Brassica napus), rice (Oryza sativa), sorghum (Sorghum bicolor), soybean (Glycine max), sugar beet (Beta vulgaris), velvetleaf (Abutilon theophrasti), wheat (Triticum aestivum), wild buckwheat (Polygonum convolvulus), and wild oat (Avena fatua) and purple nutsedge. (Cyperus rotundus) tubers were planted and treated preemergence with test chemicals dissolved in a non-phytotoxic solvent. At the same time, these crop and weed species were also treated with postemergence applications of test chemicals. Plants ranged in height from two to eighteen cm (one to four leaf stage) for postemergence treatments. Treated plants and controls were maintained in a greenhouse for twelve to sixteen days, after which all species were compared to controls and visually evaluated. […] A dash (-) response means no test result.

barley = type: in vivo, Hordeum vulgare
From the text: as §1

bedstraw = type: in vivo, Galium aparine
From the text: as §1

rape = type: in vivo, Brassica napus
From the text: as §1

sugar beet = type: in vivo, Beta vulgaris
From the text: as §1

blackgrass = type: in vivo, Alopecurus myosuroides
From the text: as §1

cheatgrass = type: in vivo, Bromus secalinus
From the text: as §1

wild buckwheat = type: in vivo, Polygonum convolvulus
From the text: as §1

lambsquarters = type: in vivo, Chenopodium album
From the text: as §1

wild oat = type: in vivo, Avena fatua
From the text: as §1

wheat = type: in vivo, Triticum aestivum
From the text: as §1

## Fc1cc(Cl)c(-c2ccccc2)cc1-c1nn2c(c1Cl)CCCC2 [Compound 46]
chickweed; POSTEMERGENCE, Rate 50 g/ha
  Plant response rating, Chickweed: 3
chickweed; POSTEMERGENCE, Rate 200 g/ha
  Plant response rating, Chickweed: 3
chickweed; PREEMERGENCE, Rate 50 g/ha
  Plant response rating, Chickweed: 0
chickweed; Rate 200 g/ha, PREEMERGENCE
  Plant response rating, Chickweed: 2
barley; POSTEMERGENCE, Rate 50 g/ha
  Plant response rating, Barley: 2
barley; POSTEMERGENCE, Rate 200 g/ha
  Plant response rating, Barley: 3
barley; PREEMERGENCE, Rate 50 g/ha
  Plant response rating, Barley: 0
barley; Rate 200 g/ha, PREEMERGENCE
  Plant response rating, Barley: 0
bedstraw; POSTEMERGENCE, Rate 50 g/ha
  Plant response rating, Bedstraw: 6
bedstraw; POSTEMERGENCE, Rate 200 g/ha
  Plant response rating, Bedstraw: 8
bedstraw; PREEMERGENCE, Rate 50 g/ha
  Plant response rating, Bedstraw: 0
bedstraw; Rate 200 g/ha, PREEMERGENCE
  Plant response rating, Bedstraw: 2
rape; POSTEMERGENCE, Rate 50 g/ha
  Plant response rating, Rape: 4
rape; PREEMERGENCE, Rate 50 g/ha
  Plant response rating, Rape: 0
rape; Rate 200 g/ha, POSTEMERGENCE
  Plant response rating, Rape: 4
rape; Rate 200 g/ha, PREEMERGENCE
  Plant response rating, Rape: 0
Sugar beet; POSTEMERGENCE, Rate 50 g/ha
  Plant response rating, Sugar beet: 10
Sugar beet; PREEMERGENCE, Rate 50 g/ha
  Plant response rating, Sugar beet: 0
Sugar beet; Rate 200 g/ha, POSTEMERGENCE
  Plant response rating, Sugar beet: 9
Sugar beet; Rate 200 g/ha, PREEMERGENCE
  Plant response rating, Sugar beet: 7
blackgrass; POSTEMERGENCE, Rate 50 g/ha
  Plant response rating, Blackgrass: 2
blackgrass; POSTEMERGENCE, Rate 200 g/ha
  Plant response rating, Blackgrass: 3
blackgrass; PREEMERGENCE, Rate 50 g/ha
  Plant response rating, Blackgrass: 0
blackgrass; Rate 200 g/ha, PREEMERGENCE
  Plant response rating, Blackgrass: 0
cheatgrass; POSTEMERGENCE, Rate 50 g/ha
  Plant response rating, Cheatgrass: 3
cheatgrass; POSTEMERGENCE, Rate 200 g/ha
  Plant response rating, Cheatgrass: 4
cheatgrass; PREEMERGENCE, Rate 50 g/ha
  Plant response rating, Cheatgrass: 0
cheatgrass; Rate 200 g/ha, PREEMERGENCE
  Plant response rating, Cheatgrass: 0
Wild buckwheat; POSTEMERGENCE, Rate 50 g/ha
  Plant response rating, Wild buckwheat: 6
Wild buckwheat; PREEMERGENCE, Rate 50 g/ha
  Plant response rating, Wild buckwheat: 0
Wild buckwheat; Rate 200 g/ha, POSTEMERGENCE
  Plant response rating, Wild buckwheat: 10
Wild buckwheat; Rate 200 g/ha, PREEMERGENCE
  Plant response rating, Wild buckwheat: 4
lambsquarters; POSTEMERGENCE, Rate 50 g/ha
  Plant response rating, Lambsquarter: 9
lambsquarters; PREEMERGENCE, Rate 50 g/ha
  Plant response rating, Lambsquarter: 0
lambsquarters; Rate 200 g/ha, POSTEMERGENCE
  Plant response rating, Lambsquarter: 10
lambsquarters; Rate 200 g/ha, PREEMERGENCE
  Plant response rating, Lambsquarter: 9
Wild oat; POSTEMERGENCE, Rate 50 g/ha
  Plant response rating, Wild oat: 2
Wild oat; PREEMERGENCE, Rate 50 g/ha
  Plant response rating, Wild oat: 0
Wild oat; Rate 200 g/ha, POSTEMERGENCE
  Plant response rating, Wild oat: 2
wheat; POSTEMERGENCE, Rate 50 g/ha
  Plant response rating, Wheat: 2
wheat; PREEMERGENCE, Rate 50 g/ha
  Plant response rating, Wheat: 0
wheat; Rate 200 g/ha, POSTEMERGENCE
  Plant response rating, Wheat: 3
wheat; Rate 200 g/ha, PREEMERGENCE
  Plant response rating, Wheat: 0

— US6358885B1, “Substituted phenylheterocyclic herbicides” (Mississippi State University, priority 1992, dated 2002)
